Data from patent US20230183292A1, “IMMUNOMODULATORS” (priority 2020, published 2023).
Starred links: 1 amine or outer side, 2 acyl side, 3 side chain; linkers in the order of their positions; H or OH if unused. Positions of bridges follow the written chain, without caps; N, C: chain ends. Non-standard residues stand in square brackets, D forms with d. Residues, ends and D or L forms follow the SMILES beside them. Groups on a side chain read outwards from the residue. *: point of attachment. X15 = C[C@H](CCC(=O)NCCCCNc1c(*)c(=O)c1=O)[C@H]1CC[C@H]2[C@@H]3[C@H](O)C[C@@H]4C[C@H](O)CC[C@]4(C)[C@H]3C[C@H](O)[C@]12C; X20 = CC(C)CCC[C@@H](C)[C@H]1CC[C@H]2[C@@H]3CC[C@H]4C[C@H](NC[C@H](N[*:1])C(=O)[*:2])CC[C@]4(C)[C@H]3CC[C@]12C; Chenodeoxycholyl = C[C@H](CCC(=O)*)[C@H]1CC[C@H]2[C@@H]3[C@H](O)C[C@@H]4C[C@H](O)CC[C@]4(C)[C@H]3CC[C@]12C; Cholyl = C[C@H](CCC(=O)*)[C@H]1CC[C@H]2[C@@H]3[C@H](O)C[C@@H]4C[C@H](O)CC[C@]4(C)[C@H]3C[C@H](O)[C@]12C; Deoxycholoyl = C[C@H](CCC(=O)*)[C@H]1CC[C@H]2[C@@H]3CC[C@@H]4C[C@H](O)CC[C@]4(C)[C@H]3C[C@H](O)[C@]12C; X16 = C[C@H](CCC(=O)*)[C@H]1CC[C@H]2[C@@H]3CC(=O)[C@@H]4CC(=O)CC[C@]4(C)[C@H]3CC[C@]12C; Trp(1-CH2CO2Me) = COC(=O)Cn1cc(C[C@H](N)C(=O)O)c2ccccc21; X29 = CN(C)C(=O)Cn1cc(C[C@H](N[*:1])C(=O)[*:2])c2ccccc21; Trp(1-CH2COOH) = N[C@@H](Cc1cn(CC(=O)O)c2ccccc12)C(=O)O; X1 = NCCNC(=O)Cn1cc(C[C@H](N[*:1])C(=O)[*:2])c2ccccc21; X31 = CCOC(=O)Cn1cc(C[C@H](N[*:1])C(=O)[*:2])c2ccccc21; Hyp = O=C(O)[C@@H]1C[C@@H](O)CN1; NMeNle = CCCC[C@H](NC)C(=O)O; NMeA = CN[C@@H](C)C(=O)O; Dab = NCC[C@H](N)C(=O)O; Dap = NC[C@H](N)C(=O)O

These compounds were tested against T1, PD-1/PD-L1 (Homo sapiens, UniProt Q9NZQ7) (assay: PD-1/PD-L1 Homogenous Time-Resolved Fluorescence (HTRF) binding assay). Settings: HTRF IC50, PD-L1-His 10 nM, PD-1-Ig 20 nM.
T1 construct: TVMV protease site (C); made in house; host or cells: HEK293T cells
T1 sequence (Q9NZQ7 18-239): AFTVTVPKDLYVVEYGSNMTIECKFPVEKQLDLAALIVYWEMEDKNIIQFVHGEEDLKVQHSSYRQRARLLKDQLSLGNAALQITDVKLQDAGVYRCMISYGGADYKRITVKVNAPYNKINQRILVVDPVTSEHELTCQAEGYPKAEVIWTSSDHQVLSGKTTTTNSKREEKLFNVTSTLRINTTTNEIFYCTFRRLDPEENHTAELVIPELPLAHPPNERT
Method in brief: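 Inhibitors pre-incubated 15 min with PD-L1-His (10 nM final) in dPBS, 0.1% BSA, 0.05% Tween-20, then 15 min with PD-1-Ig (20 nM final). Eu-cryptate anti-Ig (1 nM) and APC anti-His (20 nM) added, 30 min equilibration; HTRF 665/620 nm ratio. Human ECD proteins from HEK293T.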
`CCCC[C@H]1C(=O)N(C)[C@@H](CCCC)C(=O)N[C@@H](CC(C)C)C(=O)N[C@H](C(=O)NCC(N)=O)CSCC(=O)N[C@@H](Cc2ccc(O)cc2)C(=O)N(C)[C@@H](C)C(=O)N[C@@H](CC(N)=O)C(=O)N2CCC[C@H]2C(=O)N[C@@H](CN[C@@H]2CC[C@@]3(C)[C@@H](CC[C@@H]4[C@@H]3CC[C@]3(C)[C@@H]([C@H](C)CCCC(C)C)CC[C@@H]43)C2)C(=O)N[C@@H](CC(C)C)C(=O)N2C[C@H](O)C[C@H]2C(=O)N[C@@H](Cc2c[nH]c3ccccc23)C(=O)N[C@@H](CCN)C(=O)N[C@@H](Cc2cn(CC(=O)O)c3ccccc23)C(=O)N1C` [Example 3009] ({CH2CO}-Y[NMeA]NP[X20]L[Hyp]W[Dab][Trp(1-CH2COOH)][NMeNle][NMeNle]LCG-NH2; thioether N-14) showed an IC50 of 130 nM.

Same assay, conditions: PD-L1-His 10 nM, PD-1-Ig 20 nM; read-out: HTRF IC50
With `CCCC[C@H]1C(=O)N(C)[C@@H](CCCC)C(=O)N[C@@H](CC(C)C)C(=O)N[C@H](C(=O)NCC(N)=O)CSCC(=O)N[C@@H](Cc2ccc(O)cc2)C(=O)N(C)[C@@H](C)C(=O)N[C@@H](CC(N)=O)C(=O)N2CCC[C@H]2CN[C@@H](CNC(=O)CC[C@@H](C)[C@H]2CC[C@H]3[C@@H]4[C@H](O)C[C@@H]5C[C@H](O)CC[C@]5(C)[C@H]4C[C@H](O)[C@]23C)C(=O)N[C@@H](CC(C)C)C(=O)N2C[C@H](O)C[C@H]2C(=O)N[C@@H](Cc2c[nH]c3ccccc23)C(=O)N[C@@H](CCNC(=O)CC[C@@H](C)[C@H]2CC[C@H]3[C@@H]4[C@H](O)C[C@@H]5C[C@H](O)CC[C@]5(C)[C@H]4C[C@H](O)[C@]23C)C(=O)N[C@@H](Cc2cn(CC(=O)OCCOCCO)c3ccccc23)C(=O)N1C` [Example 2006] the IC50 was 200 nM.
`CCCC[C@H]1C(=O)N(C)[C@@H](CCCC)C(=O)N[C@@H](CC(C)C)C(=O)N[C@H](C(=O)NCC(N)=O)CSCC(=O)N[C@@H](Cc2ccc(O)cc2)C(=O)N(C)[C@@H](C)C(=O)N[C@@H](CC(N)=O)C(=O)N2CCC[C@H]2C(=O)N[C@@H](CNc2c(NCCCCNC(=O)CC[C@@H](C)[C@H]3CC[C@H]4[C@@H]5[C@H](O)C[C@@H]6C[C@H](O)CC[C@]6(C)[C@H]5C[C@H](O)[C@]34C)c(=O)c2=O)C(=O)N[C@@H](CC(C)C)C(=O)N2C[C@H](O)C[C@H]2C(=O)N[C@@H](Cc2c[nH]c3ccccc23)C(=O)N[C@@H](CCNc2c(NCCCCNC(=O)CC[C@@H](C)[C@H]3CC[C@H]4[C@@H]5[C@H](O)C[C@@H]6C[C@H](O)CC[C@]6(C)[C@H]5C[C@H](O)[C@]34C)c(=O)c2=O)C(=O)N[C@@H](Cc2cn(CC(=O)O)c3ccccc23)C(=O)N1C` [Example 5001] ({CH2CO}-Y[NMeA]NP[Dap](X15)L[Hyp]W[Dab](X15)[Trp(1-CH2COOH)][NMeNle][NMeNle]LCG-NH2; thioether N-14; N-terminus assumed) gave an IC50 of 0.7 nM.
Compound `CCCC[C@H]1C(=O)N(C)[C@@H](CCCC)C(=O)N[C@@H](CC(C)C)C(=O)N[C@H](C(=O)NCC(N)=O)CSCC(=O)N[C@@H](Cc2ccc(O)cc2)C(=O)N(C)[C@@H](C)C(=O)N[C@@H](CC(N)=O)C(=O)N2CCC[C@H]2C(=O)N[C@@H](CNC(=O)CC[C@@H](C)[C@H]2CC[C@H]3[C@@H]4[C@H](O)C[C@@H]5C[C@H](O)CC[C@]5(C)[C@H]4C[C@H](O)[C@]23C)C(=O)N[C@@H](CC(C)C)C(=O)N2C[C@H](O)C[C@H]2C(=O)N[C@@H](Cc2c[nH]c3ccccc23)C(=O)N[C@@H](CCN)C(=O)N[C@@H](Cc2cn(CC(=O)OC)c3ccccc23)C(=O)N1C` [Example 1011] ({CH2CO}-Y[NMeA]NP[Dap](Cholyl)L[Hyp]W[Dab][Trp(1-CH2CO2Me)][NMeNle][NMeNle]LCG-NH2; thioether N-14) has an IC50 of 6.3 nM.
`CCCC[C@H]1C(=O)N(C)[C@@H](CCCC)C(=O)N[C@@H](CC(C)C)C(=O)N[C@H](C(=O)NCC(N)=O)CSCC(=O)N[C@@H](Cc2ccc(O)cc2)C(=O)N(C)[C@@H](C)C(=O)N[C@@H](CC(N)=O)C(=O)N2CCC[C@H]2C(=O)N[C@@H](CNC(=O)CC[C@@H](C)[C@H]2CC[C@H]3[C@@H]4[C@H](O)C[C@@H]5C[C@H](O)CC[C@]5(C)[C@H]4CC[C@]23C)C(=O)N[C@@H](CC(C)C)C(=O)N2C[C@H](O)C[C@H]2C(=O)N[C@@H](Cc2c[nH]c3ccccc23)C(=O)N[C@@H](CCNC(=O)CC[C@@H](C)[C@H]2CC[C@H]3[C@@H]4[C@H](O)C[C@@H]5C[C@H](O)CC[C@]5(C)[C@H]4CC[C@]23C)C(=O)N[C@@H](Cc2cn(CC(=O)O)c3ccccc23)C(=O)N1C` [Example 1013] ({CH2CO}-Y[NMeA]NP[Dap](Chenodeoxycholyl)L[Hyp]W[Dab](Chenodeoxycholyl)[Trp(1-CH2COOH)][NMeNle][NMeNle]LCG-NH2; thioether N-14) showed an IC50 of 460 nM.
In the case of `CCCC[C@H]1C(=O)N(C)[C@@H](CCCC)C(=O)N[C@@H](CC(C)C)C(=O)N[C@H](C(=O)NCC(N)=O)CSCC(=O)N[C@@H](Cc2ccc(O)cc2)C(=O)N(C)[C@@H](C)C(=O)N[C@@H](CC(N)=O)C(=O)N2CCC[C@H]2C(=O)N[C@@H](CNC(=O)CC[C@@H](C)[C@H]2CC[C@H]3[C@@H]4CC[C@@H]5C[C@H](O)CC[C@]5(C)[C@H]4C[C@H](O)[C@]23C)C(=O)N[C@@H](CC(C)C)C(=O)N2C[C@H](O)C[C@H]2C(=O)N[C@@H](Cc2c[nH]c3ccccc23)C(=O)N[C@@H](CCNC(=O)CC[C@@H](C)[C@H]2CC[C@H]3[C@@H]4[C@H](O)C[C@@H]5C[C@H](O)CC[C@]5(C)[C@H]4CC[C@]23C)C(=O)N[C@@H](Cc2cn(CC(=O)OC)c3ccccc23)C(=O)N1C` [Example 1001] ({CH2CO}-Y[NMeA]NP[Dap](Deoxycholoyl)L[Hyp]W[Dab](Chenodeoxycholyl)[Trp(1-CH2CO2Me)][NMeNle][NMeNle]LCG-NH2; thioether N-14), the IC50 is reported as 9.5 nM.
`CCCC[C@H]1C(=O)N(C)[C@@H](CCCC)C(=O)N[C@@H](CC(C)C)C(=O)N[C@H](C(=O)NCC(N)=O)CSCC(=O)N[C@@H](Cc2ccc(O)cc2)C(=O)N(C)[C@@H](C)C(=O)N[C@@H](CC(N)=O)C(=O)N2CCC[C@H]2C(=O)N[C@@H](CNC(=O)CC[C@@H](C)[C@H]2CC[C@H]3[C@@H]4[C@H](O)C[C@@H]5C[C@H](O)CC[C@]5(C)[C@H]4C[C@H](O)[C@]23C)C(=O)N[C@@H](CC(C)C)C(=O)N2C[C@H](O)C[C@H]2C(=O)N[C@@H](Cc2c[nH]c3ccccc23)C(=O)N[C@@H](CCNC(=O)CC[C@@H](C)[C@H]2CC[C@H]3[C@@H]4[C@H](O)C[C@@H]5C[C@H](O)CC[C@]5(C)[C@H]4C[C@H](O)[C@]23C)C(=O)N[C@@H](Cc2cn(CC(=O)NCCN)c3ccccc23)C(=O)N1C` [Example 2021] ({CH2CO}-Y[NMeA]NP[Dap](Cholyl)L[Hyp]W[Dab](Cholyl)[X1][NMeNle][NMeNle]LCG-NH2; thioether N-14) showed an IC50 of 180 nM.
Work on `CCCC[C@H]1C(=O)N(C)[C@@H](CCCC)C(=O)N[C@@H](CC(C)C)C(=O)N[C@H](C(=O)NCC(N)=O)CSCC(=O)N[C@@H](Cc2ccc(O)cc2)C(=O)N(C)[C@@H](C)C(=O)N[C@@H](CC(N)=O)C(=O)N2CCC[C@H]2C(=O)N[C@@H](CNC(=O)CC[C@@H](C)[C@H]2CC[C@H]3[C@@H]4CC(=O)[C@@H]5CC(=O)CC[C@]5(C)[C@H]4CC[C@]23C)C(=O)N[C@@H](CC(C)C)C(=O)N2C[C@H](O)C[C@H]2C(=O)N[C@@H](Cc2c[nH]c3ccccc23)C(=O)N[C@@H](CCNC(=O)CC[C@@H](C)[C@H]2CC[C@H]3[C@@H]4CC(=O)[C@@H]5CC(=O)CC[C@]5(C)[C@H]4CC[C@]23C)C(=O)N[C@@H](Cc2cn(CC(=O)O)c3ccccc23)C(=O)N1C` [Example 1019] ({CH2CO}-Y[NMeA]NP[Dap](X16)L[Hyp]W[Dab](X16)[Trp(1-CH2COOH)][NMeNle][NMeNle]LCG-NH2; thioether N-14) yielded an IC50 of 13 nM.
In the case of `CCCC[C@H]1C(=O)N(C)[C@@H](CCCC)C(=O)N[C@@H](CC(C)C)C(=O)N[C@H](C(=O)NCC(N)=O)CSCC(=O)N[C@@H](Cc2ccc(O)cc2)C(=O)N(C)[C@@H](C)C(=O)N[C@@H](CC(N)=O)C(=O)N2CCC[C@H]2C(=O)N[C@@H](CNC(=O)CC[C@@H](C)[C@H]2CC[C@H]3[C@@H]4[C@H](O)C[C@@H]5C[C@H](O)CC[C@]5(C)[C@H]4CC[C@]23C)C(=O)N[C@@H](CC(C)C)C(=O)N2C[C@H](O)C[C@H]2C(=O)N[C@@H](Cc2c[nH]c3ccccc23)C(=O)N[C@@H](CCNC(=O)CC[C@@H](C)[C@H]2CC[C@H]3[C@@H]4[C@H](O)C[C@@H]5C[C@H](O)CC[C@]5(C)[C@H]4CC[C@]23C)C(=O)N[C@@H](Cc2cn(CC(=O)OCC)c3ccccc23)C(=O)N1C` [Example 2001] ({CH2CO}-Y[NMeA]NP[Dap](Chenodeoxycholyl)L[Hyp]W[Dab](Chenodeoxycholyl)[X31][NMeNle][NMeNle]LCG-NH2; thioether N-14), the IC50 is reported as 220 nM.
`CCCC[C@H]1C(=O)N(C)[C@@H](CCCC)C(=O)N[C@@H](CC(C)C)C(=O)N[C@H](C(=O)NCC(N)=O)CSCC(=O)N[C@@H](Cc2ccc(O)cc2)C(=O)N(C)[C@@H](C)C(=O)N[C@@H](CC(N)=O)C(=O)N2CCC[C@H]2C(=O)N[C@@H](CNC(=O)CNC(=O)CC[C@@H](C)[C@H]2CC[C@H]3[C@@H]4[C@H](O)C[C@@H]5C[C@H](O)CC[C@]5(C)[C@H]4C[C@H](O)[C@]23C)C(=O)N[C@@H](CC(C)C)C(=O)N2C[C@H](O)C[C@H]2C(=O)N[C@@H](Cc2c[nH]c3ccccc23)C(=O)N[C@@H](CCN)C(=O)N[C@@H](Cc2cn(CC(=O)N(C)C)c3ccccc23)C(=O)N1C` [Example 1008] ({CH2CO}-Y[NMeA]NP[Dap]([Gly-Cholyl])L[Hyp]W[Dab][X29][NMeNle][NMeNle]LCG-NH2; thioether N-14) was tested, and the IC50 was 14 nM.
